Calls of active or inactive are those of the source.
Legend:
HEK293 = experiment: Fluorescence-based counterscreen for potentiators or agonists of NPY-Y2: cell-based high-throughput dose response assay to identify inhibitors of cyclic nucleotide gated ion channel (CNGC) activity. In this assay, the parental HEK293 cell line transfected with a cyclic-nucleotide gated ion channel (CNGC)-based cAMP sensor is used to measure inhibition of isoproterenol-induced CNGC activity by test compound.; type: functional; settings: Homo sapiens;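 note: stimulus is 1 µM isoproterenol at EC100 plus PDE inhibitor Ro 20-1724 at 25 µM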
[1] = molecular target: T1, Neuropeptide Y receptor type 2 (Homo sapiens, UniProt P49146); experiment: Fluorescence-based cell-based high-throughput dose response assay for agonists of NPY-Y2. [Related pubchem assays: 1703 (Screening assay (CNGC inhibitors).), 1359 (Screening assay (NPY-Y2 potentiators or agonists).), 1304 (Screening assay (NPY-Y1 potentiators or agonists).), 1710 (Screening assay (NPY-Y2 agonists).), 1791 (Summary AID.)]; type: functional
T1 sequence (P49146 whole entry): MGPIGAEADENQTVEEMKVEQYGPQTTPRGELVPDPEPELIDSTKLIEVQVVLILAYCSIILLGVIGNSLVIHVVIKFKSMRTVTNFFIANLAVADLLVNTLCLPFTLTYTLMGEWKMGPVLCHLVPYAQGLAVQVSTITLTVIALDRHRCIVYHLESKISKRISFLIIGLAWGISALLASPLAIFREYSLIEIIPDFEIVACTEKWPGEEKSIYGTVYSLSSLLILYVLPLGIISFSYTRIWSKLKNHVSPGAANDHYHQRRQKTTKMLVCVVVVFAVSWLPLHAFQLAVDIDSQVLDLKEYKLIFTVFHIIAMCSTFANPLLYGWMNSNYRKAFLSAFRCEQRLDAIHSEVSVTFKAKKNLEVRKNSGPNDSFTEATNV

[2] = molecular target: T2, Neuropeptide Y receptor type 1 (Homo sapiens, UniProt P25929); experiment: Fluorescence-based counterscreen for agonists of NPY-Y2: cell-based high-throughput dose response assay for agonists of NPY-Y1.; type: functional
T2 sequence (P25929 whole entry): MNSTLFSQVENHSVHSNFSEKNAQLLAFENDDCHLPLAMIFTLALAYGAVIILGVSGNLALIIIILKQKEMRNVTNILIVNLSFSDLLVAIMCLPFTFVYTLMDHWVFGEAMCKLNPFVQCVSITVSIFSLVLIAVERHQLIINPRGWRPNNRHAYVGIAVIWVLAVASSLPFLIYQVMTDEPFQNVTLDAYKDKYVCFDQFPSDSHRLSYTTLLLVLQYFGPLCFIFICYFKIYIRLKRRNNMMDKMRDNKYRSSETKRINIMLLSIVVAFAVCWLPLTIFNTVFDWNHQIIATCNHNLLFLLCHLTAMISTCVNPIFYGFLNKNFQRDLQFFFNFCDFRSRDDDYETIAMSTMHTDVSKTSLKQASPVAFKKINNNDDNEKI

[3] = A High Throughput Confirmatory Assay used to Identify Novel Compounds that Inhibit Mycobacterium Tuberculosis in the absence of Glycerol.; type: functional
[4] = M. tuberculosis growth inhibition, HTS (AID 449762); type: functional
[5] = molecular target: T3, Probable nicotinate-nucleotide adenylyltransferase (Staphylococcus aureus (strain N315), UniProt P65502); type: functional, Staphylococcus aureus subsp. aureus N315;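 for IC50 Mean: confirmatory dose-response retesting of NadD inhibitor hits first found in an ultra-high-throughput screen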
T3 sequence (P65502 whole entry): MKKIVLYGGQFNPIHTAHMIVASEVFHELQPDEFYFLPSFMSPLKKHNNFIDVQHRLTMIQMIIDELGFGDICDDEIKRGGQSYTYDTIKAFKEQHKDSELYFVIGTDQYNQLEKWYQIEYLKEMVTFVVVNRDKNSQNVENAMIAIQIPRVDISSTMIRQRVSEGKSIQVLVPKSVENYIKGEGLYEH

[6] = molecular target: T3, Probable nicotinate-nucleotide adenylyltransferase; type: functional, Staphylococcus aureus subsp. aureus N315; settings: read-out: IC50_Mean
Estrogen receptor = molecular target: T4, Estrogen receptor (Homo sapiens, UniProt P03372); experiment: ERα–SRC-3 coactivator interaction inhibitors, confirmation, orthogonal assay, biochemical, ELISA, streptavidin-HRP readout (AID 1079)
T4 sequence (P03372 whole entry): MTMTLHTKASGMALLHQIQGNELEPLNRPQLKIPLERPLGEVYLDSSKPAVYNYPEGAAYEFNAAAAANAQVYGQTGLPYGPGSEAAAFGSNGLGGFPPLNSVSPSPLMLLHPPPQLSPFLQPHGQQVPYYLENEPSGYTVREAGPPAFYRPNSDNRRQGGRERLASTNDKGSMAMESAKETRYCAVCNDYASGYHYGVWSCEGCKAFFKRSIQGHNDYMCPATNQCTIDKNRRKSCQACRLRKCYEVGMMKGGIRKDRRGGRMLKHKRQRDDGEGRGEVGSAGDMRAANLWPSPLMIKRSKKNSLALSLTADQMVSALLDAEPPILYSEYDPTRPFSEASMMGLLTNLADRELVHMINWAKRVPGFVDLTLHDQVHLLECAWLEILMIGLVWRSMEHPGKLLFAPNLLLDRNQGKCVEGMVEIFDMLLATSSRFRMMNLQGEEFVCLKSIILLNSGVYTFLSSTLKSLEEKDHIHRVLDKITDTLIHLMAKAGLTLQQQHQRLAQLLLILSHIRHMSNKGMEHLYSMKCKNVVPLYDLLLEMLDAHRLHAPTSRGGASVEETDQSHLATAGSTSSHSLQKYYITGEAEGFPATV

[7] = M. tuberculosis H37Rv growth inhibitors, H37Rv strain (AID 1626); type: functional
cells = type: functional
Streptococcus [8] = experiment: Luminescence Microorganism-Based Dose Response Follow up to Identify Compounds Cytotoxic to Streptococcus. [Related pubchem assays: 1677 (Project Summary), 1915, 1914, 1902 (Retest at Dose), 1900 (Counter Screen), 1662 (Primary HTS)]; type: functional, organism-based
[9] = molecular target: Sphingosine 1-phosphate receptor 2 (Homo sapiens, UniProt O95136); experiment: Dose Response Cell Based Assay for Antagonists of the S1P2 Receptor. [Related pubchem assays: 856, 736 ]; type: functional
Chain of Sphingosine 1-phosphate receptor 2 (O95136 whole entry): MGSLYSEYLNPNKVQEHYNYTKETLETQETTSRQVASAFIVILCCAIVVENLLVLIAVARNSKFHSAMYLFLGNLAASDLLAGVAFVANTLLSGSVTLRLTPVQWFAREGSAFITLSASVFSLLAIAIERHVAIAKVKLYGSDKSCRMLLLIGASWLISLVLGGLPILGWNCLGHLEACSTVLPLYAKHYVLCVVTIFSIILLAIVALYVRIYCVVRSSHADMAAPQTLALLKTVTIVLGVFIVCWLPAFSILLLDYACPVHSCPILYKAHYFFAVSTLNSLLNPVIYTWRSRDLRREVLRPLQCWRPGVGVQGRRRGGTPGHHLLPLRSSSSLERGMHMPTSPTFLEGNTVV

[10] = system: Streptococcus sp. 'group A'; experiment: growth inhibition of control SK(-) GAS strain, dose response, counter-screen for streptokinase expression inhibitor project, luminescence, kanamycin, BacTiterGlo, confirmation (AID 1900); type: functional, organism-based
[11] = cytotoxicity in HPDE-C7 cells, cell-based, fluorescence, HTS (AID 430); type: functional; settings: Homo sapiens
[12] = cytotoxicity in KRAS-transformed pancreatic duct cells, primary screen, cell-based, fluorescence, HTS (AID 431); type: functional; settings: Homo sapiens;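 note: cell line used: HPDE-C7K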
[13] = molecular target: Protein-tyrosine kinase 2-beta (Homo sapiens, UniProt Q14289);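 note: potency of inhibitors of PYK2 kinase phosphorylation of poly-GT substrate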
Chain of Protein-tyrosine kinase 2-beta (Q14289 whole entry): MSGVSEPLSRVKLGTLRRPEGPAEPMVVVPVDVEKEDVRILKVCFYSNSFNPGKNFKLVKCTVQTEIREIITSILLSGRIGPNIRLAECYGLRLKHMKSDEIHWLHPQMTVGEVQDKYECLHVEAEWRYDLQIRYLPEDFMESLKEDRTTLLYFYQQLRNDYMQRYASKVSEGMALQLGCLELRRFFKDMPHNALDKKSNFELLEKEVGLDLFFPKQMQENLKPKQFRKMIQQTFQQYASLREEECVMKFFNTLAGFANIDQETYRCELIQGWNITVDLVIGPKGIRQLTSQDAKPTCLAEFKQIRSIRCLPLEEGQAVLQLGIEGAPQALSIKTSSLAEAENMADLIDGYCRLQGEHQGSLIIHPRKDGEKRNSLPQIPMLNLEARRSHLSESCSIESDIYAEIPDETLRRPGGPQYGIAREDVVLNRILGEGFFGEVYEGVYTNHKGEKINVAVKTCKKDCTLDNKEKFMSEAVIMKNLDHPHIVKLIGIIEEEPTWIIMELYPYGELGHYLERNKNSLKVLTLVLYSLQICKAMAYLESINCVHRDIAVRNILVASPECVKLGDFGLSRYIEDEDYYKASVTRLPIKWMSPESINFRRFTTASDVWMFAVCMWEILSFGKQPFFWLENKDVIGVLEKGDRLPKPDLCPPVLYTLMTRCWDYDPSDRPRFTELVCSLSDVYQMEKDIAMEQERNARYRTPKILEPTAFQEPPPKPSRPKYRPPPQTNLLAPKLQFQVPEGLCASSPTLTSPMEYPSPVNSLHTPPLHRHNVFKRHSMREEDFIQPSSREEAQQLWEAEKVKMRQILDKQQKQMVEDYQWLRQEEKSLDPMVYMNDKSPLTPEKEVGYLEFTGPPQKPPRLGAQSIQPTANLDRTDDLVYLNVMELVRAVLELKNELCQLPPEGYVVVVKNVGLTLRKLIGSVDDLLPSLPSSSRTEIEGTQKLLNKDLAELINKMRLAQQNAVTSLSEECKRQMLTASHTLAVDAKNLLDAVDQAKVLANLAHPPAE

Streptococcus [14] = experiment: Group A Streptococcus viability loss, dose response, counter-screen for streptokinase expression inhibitor project, luminescence, BacTiterGlo (AID 1915); type: functional, organism-based;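 note: potency for reduction of bacterial viability or growth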
INS1 = experiment: beta cell apoptosis inhibitors, cytokine rescue, dose response, luminescence, retest (AID 449756); type: functional, cell-based; settings: Rattus norvegicus;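 note: cell death triggered by IL-1 beta plus TNF-alpha plus IFN-gamma mixture; protective hits raise ATP signal compared with cytokine alone wells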
[15] = Shn3 3'UTR reporter inhibitors, dose response, cell-based, Clone20 osteoblasts, firefly luciferase, cherry-picked (AID 624132); type: functional;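 note: firefly luciferase luminescence from reporter carrying the Shn3 3'UTR in osteoblasts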
[16] = control 3'UTR Renilla luciferase suppression, dose response, counter-screen for Shn3 inhibitor project, cell-based, Clone20-Shn3RL, cherry-picked (AID 624133); type: functional
[17] = Artemis endonuclease inhibitor potency, dose response, biochemical, fluorescence intensity (AID 720701); type: functional;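 note: Artemis endonuclease enzyme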
[18] = molecular target: Peroxisome proliferator-activated receptor gamma (Homo sapiens, UniProt P37231); experiment: PPARg ligand-binding domain binders, dose response, PPARg partial agonist project, biochemical, TR-FRET, LanthaScreen (AID 504446)
Chain of Peroxisome proliferator-activated receptor gamma (P37231 whole entry, the tested form may be a part): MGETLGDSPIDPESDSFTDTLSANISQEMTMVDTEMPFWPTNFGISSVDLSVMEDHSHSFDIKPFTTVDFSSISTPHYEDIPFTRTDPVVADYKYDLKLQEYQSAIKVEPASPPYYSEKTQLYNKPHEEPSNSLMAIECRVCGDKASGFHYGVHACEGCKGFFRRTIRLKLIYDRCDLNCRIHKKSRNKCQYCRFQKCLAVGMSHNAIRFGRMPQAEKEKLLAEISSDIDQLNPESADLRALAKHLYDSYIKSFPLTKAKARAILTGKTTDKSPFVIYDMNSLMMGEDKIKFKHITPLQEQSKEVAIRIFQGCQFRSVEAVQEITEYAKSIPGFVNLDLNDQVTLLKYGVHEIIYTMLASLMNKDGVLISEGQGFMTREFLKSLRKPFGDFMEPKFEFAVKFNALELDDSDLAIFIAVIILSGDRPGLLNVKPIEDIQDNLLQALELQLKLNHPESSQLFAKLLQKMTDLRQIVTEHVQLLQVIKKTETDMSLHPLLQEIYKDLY

Which results are given for COc1ccc(-n2nnnc2SCC(=O)NCCc2ccccc2)cc1OC?
EC50 (HEK293): > 35.4 µM (not active); EC50 [1]: > 35.4 µM (not active); EC50 [2]: > 35.4 µM (not active)

Which IC50 [3] does the source give for CC(=O)c1cccc(NC(=O)C2C3C=CC(C3=C(c3ccccc3)c3ccccc3)C2C(=O)O)c1 (configuration not stated) here?
Its IC50 is > 50 µM (active).

And the IC50 [4]?
The IC50 was > 100 µM (active).

What about the IC50 [5] of the same compound?
The IC50 was 8.12 µM (active).

And the IC50 [6]?
The IC50 was 44.5 µM (active).

With O=C(CCCCCn1c(=S)[nH]c2ccccc2c1=O)N1CCN(c2cccc([N+](=O)[O-])c2)CC1 as the compound, how does the IC50 (Estrogen receptor) read?
Its IC50 is 0.84 µM (not active).

With N=C1/C(=C/c2ccc(OC(=O)c3ccco3)cc2)C(=O)N=C2SC=CN12 as the compound, how does the IC50 [7] read?
The IC50 was > 100 µM (active).

What about the IC50 (cells) of the same compound?
Its IC50 is 10.9 µM (active).

For CN1C(=O)/C(=C\c2cccn2-c2ccc3ccccc3c2)C(=O)NC1=S, which EC50 (Streptococcus [8]) is on record?
Its EC50 is > 260 µM (not active).

Which IC50 [9] does the source give for CCn1c(=O)c(C(=O)Nc2nc3ccccc3[nH]2)c(O)c2ccccc21 here?
The IC50 was > 50 µM (not active).

And the EC50 [10]?
The EC50 was 0.992 µM (active).

What about the EC50 [11] of the same compound?
Its EC50 is 4.14 µM (active).

And the EC50 [12]?
The EC50 was 5.58 µM (active).

What about the IC50 [13] of the same compound?
The IC50 was > 69.5 µM (not active).

And the EC50 (Streptococcus [14])?
Its EC50 is 2.99 µM (active).

And the AC50 (INS1)?
Its AC50 is 3.83 µM (active).

What about the AC50 [15] of the same compound?
Its AC50 is 6.01 µM (active).

What about the AC50 [16] of the same compound?
The AC50 was 4.17 µM (active).

And the IC50 [17]?
The IC50 was 3.81 µM (active).

Which IC50 [18] does the source give for O=C(O)CCN1C(=O)/C(=C/c2ccc(C(F)(F)F)cc2C(F)(F)F)SC1=S here?
Its IC50 is 2 µM (active).
